In experiment [1] the test system is N1E-115 cells. Nature of the experiment: Morphological analysis of N1E-115 cells. It counts as cell-based. As to conditions: for cell population with long neurites / neurite formation: transfection, 48 h, Y-27632 10 μM for 30 minutes. How it is done: N1E-115 cells were transfected with GFP, GFP-full-p21 or GFP-ΔNLS-p21, and cultured in serum-starved condition for 5 hours. Then, the medium was replaced with DMEM containing 10% fetal bovine serum. The cells were fixed at 48 hours after transfection. The morphology of the cells was categorized into 3 groups; neurite positive cells, round cells and the other cells. The cells with longer neurites than their soma were defined as neurite positive cells. The other cells had various features including microspikes, ruffles and a flattened appearance.

The target of experiment [2] is T1, myc-Rho-kinase (Bos taurus, UniProt Q28021). Nature of the experiment: Rho-kinase kinase assay with lysates of transfected 293T cells. The experiment is classed as cell-based. How it is done: Cells were lysed with lysis buffer (50 mM Tris-HCl (pH 7.5), 150 mM NaCl, 10% glycerol, 1% Nonidet-P40 and protease inhibitor cocktail). The kinase assay was carried out using the lysates.
T1 sequence (Q28021 whole entry): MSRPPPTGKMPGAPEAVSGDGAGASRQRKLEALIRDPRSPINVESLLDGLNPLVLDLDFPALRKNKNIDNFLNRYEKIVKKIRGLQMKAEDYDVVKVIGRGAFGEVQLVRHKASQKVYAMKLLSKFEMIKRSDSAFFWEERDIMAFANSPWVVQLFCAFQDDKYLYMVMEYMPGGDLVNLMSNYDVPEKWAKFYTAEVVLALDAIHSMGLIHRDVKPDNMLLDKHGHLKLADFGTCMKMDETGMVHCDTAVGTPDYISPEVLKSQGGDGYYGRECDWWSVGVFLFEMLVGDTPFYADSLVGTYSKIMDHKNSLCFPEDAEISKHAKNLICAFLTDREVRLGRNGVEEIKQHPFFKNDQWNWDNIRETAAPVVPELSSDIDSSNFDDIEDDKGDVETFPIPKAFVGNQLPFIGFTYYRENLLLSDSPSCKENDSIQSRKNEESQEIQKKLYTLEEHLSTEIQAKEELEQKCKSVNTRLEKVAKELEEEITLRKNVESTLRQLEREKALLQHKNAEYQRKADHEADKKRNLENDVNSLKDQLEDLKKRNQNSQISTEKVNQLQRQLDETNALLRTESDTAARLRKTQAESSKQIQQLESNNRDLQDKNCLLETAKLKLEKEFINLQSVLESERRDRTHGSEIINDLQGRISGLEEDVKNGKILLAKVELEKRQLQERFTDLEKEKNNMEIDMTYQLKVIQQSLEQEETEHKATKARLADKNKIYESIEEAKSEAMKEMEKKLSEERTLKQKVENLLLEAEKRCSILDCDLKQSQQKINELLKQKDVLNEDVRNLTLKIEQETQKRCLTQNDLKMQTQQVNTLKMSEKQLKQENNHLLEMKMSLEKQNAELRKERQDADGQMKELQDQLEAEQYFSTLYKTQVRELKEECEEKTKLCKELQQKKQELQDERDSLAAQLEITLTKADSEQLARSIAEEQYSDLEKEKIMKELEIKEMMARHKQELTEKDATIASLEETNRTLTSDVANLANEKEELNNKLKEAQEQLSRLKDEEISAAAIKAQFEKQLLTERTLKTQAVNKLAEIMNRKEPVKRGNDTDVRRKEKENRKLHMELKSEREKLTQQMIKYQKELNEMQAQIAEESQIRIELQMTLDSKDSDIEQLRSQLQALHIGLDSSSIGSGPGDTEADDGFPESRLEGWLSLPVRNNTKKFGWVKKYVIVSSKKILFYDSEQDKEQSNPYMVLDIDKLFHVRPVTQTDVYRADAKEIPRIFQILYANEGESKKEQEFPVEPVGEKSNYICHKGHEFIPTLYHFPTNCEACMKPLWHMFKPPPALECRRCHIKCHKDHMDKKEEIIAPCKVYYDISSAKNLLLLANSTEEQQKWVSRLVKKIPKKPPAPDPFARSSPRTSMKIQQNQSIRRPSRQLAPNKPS

Experiment [3] concerns N1E-115 cells. The experiment in a line: Growth, cyclin D3 and pRb in N1E-115 cells. It counts as cell-based. To be noted: for protein level of cyclin D3 / phosphorylation state of pRb: Western blot; for growth of N1E-115 cells: after transfection. How it is done: (§1) NIH3T3 cells, N1E-115 cells and 293T cells were maintained in DMEM containing 10% fetal bovine serum. Lipofectamine 2000 (Invitrogen) was used for transfection. For the stress fiber formation assay, NIH3T3 cells were cultured in serum-free medium for 16 hours after transfection. Stress fiber formation was evoked by incubating the cells with 10% serum for 10 minutes. Hippocampal neurons were prepared from […], as previously described (Neumann, H. et al., Science. 269:549-552, 1995). Briefly, hippocampi were dissected and the meninges removed. The trimmed tissue was dissociated by trituration. The dissociated cells were plated on dishes pre-coated with poly-L-lysine (Sigma), and cultured in DMEM containing 10% fetal bovine serum for 24 hours. Then, the medium was replaced with DMEM with B27 supplement (Invitrogen), and the cells were transfected with GFP or GFP-ΔNLS-p21. Neuronal morphology was estimated at 24 hours after the transfection.
For orientation: A western blot detects proteins with antibodies after separation by electrophoresis.

Experiment [4] addresses T1, myc-Rho-kinase. The experiment in a line: Co-immunoprecipitation of p21 constructs and Rho-kinase in 293T cells. The experiment is classed as cell-based. To be noted: 293T cells cotransfected. How it is done:
293T cells were transfected with myc-Rho-kinase in combination with GFP-full-p21 or GFP-ΔNLS-p21. At 48 hours after transfection, the cells were lysed with 1 ml of lysis buffer (50 mM Tris-HCl (pH 7.5), 150 mM NaCl, 10% glycerol, 0.5% Nonidet-P40 including protease inhibitor cocktail tablets (Roche). The cell lysates were centrifuged at 13,000×g for 20 minutes, and the supernatant was collected. Immunoprecipitations were performed for 2 hours at 4° C. using an anti-p21 mouse monoclonal antibody (Santa Cruz Biotechnology) and 0.75 ml of the supernatant. The immunocomplexes were collected with protein G-Sepharose (Amersham Pharmacia Biotech) slurry (50% v/v), washed 4 times with lysis buffer, and subjected to SDS-PAGE. They were transferred to the polyvinylidene difluoride membranes and probed with the anti-myc rabbit polyclonal antibody (Santa Cruz Biotechnology). Interaction of endogenous proteins in N1E-115 cells was assessed in the same way using anti Rho-kinase antibody.

The test system of the next experiment is NIH3T3 cells. The experiment in a line: Stress fiber formation assay. It counts as cell-based. As to conditions: serum-starved 16 hours, 10% serum 10 minutes. How it is done: as §1
The target of experiment [5] is T2, recombinant human p75-Fc chimera (Homo sapiens, UniProt P08138).
T2 construct: Recombinant p75 extracellular domain fused to Fc purified from Sf21 cells; purchased Genzyme-Techne; host or cells: Sf21
T2 sequence (P08138 29-250 limits assumed): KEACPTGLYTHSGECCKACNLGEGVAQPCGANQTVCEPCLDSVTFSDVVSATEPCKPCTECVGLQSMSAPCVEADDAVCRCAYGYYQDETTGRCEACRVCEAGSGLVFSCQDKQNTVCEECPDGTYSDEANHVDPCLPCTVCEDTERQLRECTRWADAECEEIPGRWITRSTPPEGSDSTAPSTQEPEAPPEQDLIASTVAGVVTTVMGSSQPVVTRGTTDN
The experiment in a line: Co-precipitation of recombinant p75 and gangliosides. It counts as binding. As to conditions: precipitation with protein A sepharose, Western blot. As for the experimental part:
Recombinant human p75-Fc chimera (1 μg; Genzyme-Techne) and 1 μg of purified ganglioside GT1b (>98% purity, Seikagaku Co.) were incubated in 200 μl 0.025% Tween20/PBS for 2 h, and p75 was precipitated using proteinA sepharose (Amersham Pharmacia Biotech). The resultant precipitates were electrophoretically transferred to polyvinylidene difluoride membranes after SDS-PAGE with 7% gels and were immunoblotted with anti GT1b antibody (IgM, Seikagaku Co.) or anti p75 antibody.

The target in experiment [6] is T3, association of p75 with Rho GDI (Homo sapiens, UniProt P08138).
T3 construct: host or cells: 293T (p75)
T3 sequence (P08138 29-427): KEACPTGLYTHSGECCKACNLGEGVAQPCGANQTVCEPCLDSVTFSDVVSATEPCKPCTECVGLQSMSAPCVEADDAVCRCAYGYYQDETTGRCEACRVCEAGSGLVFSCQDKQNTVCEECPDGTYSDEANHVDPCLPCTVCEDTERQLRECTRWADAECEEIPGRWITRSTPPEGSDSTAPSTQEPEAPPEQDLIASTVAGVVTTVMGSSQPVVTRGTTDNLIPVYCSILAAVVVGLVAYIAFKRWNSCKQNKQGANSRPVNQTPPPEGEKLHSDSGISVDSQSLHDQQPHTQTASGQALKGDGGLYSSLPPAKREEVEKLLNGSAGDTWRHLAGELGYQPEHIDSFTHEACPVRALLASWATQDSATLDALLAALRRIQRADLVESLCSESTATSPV
The experiment in a line: Co-precipitation of p75 with recombinant GST-Rho GDI or GST-RhoA. It counts as binding. To be noted: for direct binding of recombinant protein to p75 precipitated from transfected 293T cells: RhoA in the GDP-bound, GTP-bound or nucleotide-depleted state.

For a further experiment, the system named is hippocampal neurons. The experiment in a line: Neurite outgrowth and branching of hippocampal neurons. As to conditions: rat E18, 24 hours after transfection. The experiment is classed as cell-based. As for the experimental part: as §1
Cultures of the hippocampal neurons from rat E18 embryos were used. […] Twenty-four hours after transfection, the cells were fixed and immunolabeled with β-tubulin III. The total neurite length per neuron, the axonal length, defined as the length of the longest neurite per neuron, the number of primary processes originating from the neuronal somata, and the number of branch points per neuron were determined (Neumann, H. et al., J. Neurosci. 22:854-862, 2002).

Another experiment deals with cerebellar neurons. The experiment in a line: Neurite outgrowth assay, post-natal cerebellar neurons. The experiment is classed as cell-based, mouse. As to conditions: cells transfected with myc-tagged Rho GDI.

For “full-p21: GFP fused full length p21 (aa 1-164) expressed from pEGFP-full-p21”, in the experiment on N1E-115 cells [1] (48 hours after transfection), the cell rounding entry is reported as “decreased cell rounding”. The “cell population with long neurites / neurite formation” value with N1E-115 cells [1] was “no increase in the cell population that had long neurites”. For the same compound, the “Rho-kinase activity in transfected cells” value with myc-Rho-kinase [2] is “had no significant effect”. Besides, in the experiment on N1E-115 cells [3], the “protein level of cyclin D3” value is recorded as “strongly increased” and the “growth of N1E-115 cells” value is recorded as “stopped proliferation”. In addition, the “co-immunoprecipitation of myc-tagged Rho-kinase with anti-p21 antibody” value with myc-Rho-kinase [4] is recorded as “only a faint signal could be detected”. In the experiment with NIH3T3 cells, the “formation of actin stress fibers after the addition of serum” value was “Extensive actin stress fibers were observed”.
What is called inhibition is the percentage by which the read-out fell short of the control. For `C[C@@H](N)[C@H]1CC[C@H](C(=O)Nc2ccncc2)CC1` [Y-27632, reference compound], the “cell population with long neurites / neurite formation” value in the experiment with N1E-115 cells [1] is on record as “induced significant neurite formation”. The inhibition at 10 µM at myc-Rho-kinase [2] (HEK-293T, Y-27632 10 μM for 30 minutes, read-out: (compared to the original) inhibition of Rho-kinase activity) was 51.9%.
With GT1b, the “association of ganglioside with recombinant p75 extracellular domain fused to Fc” value in experiment [5] is on record as “binds to p75 in a manner that is SDS-resistant”.
Same read-out and setting: the same measure for GD1a: “did not see any interaction”.
Regarding CFFRGGFFNHNPRYC [Pep5], in experiment [6] (1 μM GST-Rho GDI, Pep5 at the indicated concentrations), the “association of p75 with Rho GDI” value is “inhibited the association of p75 with Rho GDI dose dependently”.
With GM1, in experiment [5], the “association of ganglioside with recombinant p75 extracellular domain fused to Fc” value is listed as “no interaction”.
With “ΔNLS-p21: GFP fused p21 with loss of nuclear localization signal (aa 1-140) expressed from pEGFP-ΔNLS-p21”, the “number of primary processes” value in the experiment on hippocampal neurons is recorded as “no change”. Moreover, the “number of branch points per neuron” value in the experiment with hippocampal neurons (control 1.3) is listed as 2.6 (±0.3 SEM). In the experiment with hippocampal neurons (control 66.3), the “axonal length (longest neurite per neuron)” value was 162.9 μm. Further, the “total neurite length per neuron” value in the experiment on hippocampal neurons (control 135.9) amounted to 307.2 μm. Besides, in the experiment on N1E-115 cells [1] (48 hours after transfection), the “cells that extended long neurites” value was “more than 45%” and the “increase of cells with long neurites compared to the control” value is listed as 3.1 -fold. Besides, in the experiment with N1E-115 cells [3], the “phosphorylation state of pRb” value was “hyperphosphorylated pRb remained predominant”, the “protein level of cyclin D3” value is recorded as “no change in the expression” and the “growth of N1E-115 cells” value is “proliferated until 48 hours after transfection”. In addition, the “co-immunoprecipitation of myc-tagged Rho-kinase with anti-p21 antibody” value with myc-Rho-kinase [4] is “efficiently precipitated myc-tagged Rho-kinase”. For the same compound, in the experiment with NIH3T3 cells, the “formation of actin stress fibers after the addition of serum” value is reported as “had little stress fiber formation”.
Regarding “RhoA: bacterially produced RhoA (GST-RhoA)”, the “direct binding of recombinant protein to p75 precipitated from transfected 293T cells” value in experiment [6] is reported as “no interaction between them in any nucleotide state”.
Turning to `C[S+](C)[O-]` [DMSO, reference compound], in the experiment on N1E-115 cells [3], the “phosphorylation state of pRb” value is “hyperphosphorylated pRb became undetectable” and the “protein level of cyclin D3” value is reported as “strongly increased”.
In the case of “Rho GDI: Rho GDP dissociation inhibitor; recombinant GST-Rho GDI or myc-tagged Rho GDI over-expressed in neurons”, the “direct binding of recombinant protein to p75 precipitated from transfected 293T cells” value in [6] was “bound to p75”. In addition, the “inhibitory effects of MAG and the Nogo peptide on neurite outgrowth on over-expression of Rho GDI” value in the experiment with cerebellar neurons was “abolished these inhibitory effects”.

The values above are taken from US20040191240A1, “Composition and method for nerve regeneration” (priority 2003, published 2004).
